These results are taken from patent publication US10065990B2, “Cyclic peptide compound, and preparation method, pharmaceutical composition and use thereof” (HANGZHOU GUANYU BIO-MEDICAL CO., LTD, priority 2013, dated 2018).

Molecules are shown by their SMILES. Read-outs that look alike come from different tables or passages of the source.

The target of one assay is T1, HDAC7 (Homo sapiens, UniProt Q8WUI4).
T1 sequence (Q8WUI4 1-952): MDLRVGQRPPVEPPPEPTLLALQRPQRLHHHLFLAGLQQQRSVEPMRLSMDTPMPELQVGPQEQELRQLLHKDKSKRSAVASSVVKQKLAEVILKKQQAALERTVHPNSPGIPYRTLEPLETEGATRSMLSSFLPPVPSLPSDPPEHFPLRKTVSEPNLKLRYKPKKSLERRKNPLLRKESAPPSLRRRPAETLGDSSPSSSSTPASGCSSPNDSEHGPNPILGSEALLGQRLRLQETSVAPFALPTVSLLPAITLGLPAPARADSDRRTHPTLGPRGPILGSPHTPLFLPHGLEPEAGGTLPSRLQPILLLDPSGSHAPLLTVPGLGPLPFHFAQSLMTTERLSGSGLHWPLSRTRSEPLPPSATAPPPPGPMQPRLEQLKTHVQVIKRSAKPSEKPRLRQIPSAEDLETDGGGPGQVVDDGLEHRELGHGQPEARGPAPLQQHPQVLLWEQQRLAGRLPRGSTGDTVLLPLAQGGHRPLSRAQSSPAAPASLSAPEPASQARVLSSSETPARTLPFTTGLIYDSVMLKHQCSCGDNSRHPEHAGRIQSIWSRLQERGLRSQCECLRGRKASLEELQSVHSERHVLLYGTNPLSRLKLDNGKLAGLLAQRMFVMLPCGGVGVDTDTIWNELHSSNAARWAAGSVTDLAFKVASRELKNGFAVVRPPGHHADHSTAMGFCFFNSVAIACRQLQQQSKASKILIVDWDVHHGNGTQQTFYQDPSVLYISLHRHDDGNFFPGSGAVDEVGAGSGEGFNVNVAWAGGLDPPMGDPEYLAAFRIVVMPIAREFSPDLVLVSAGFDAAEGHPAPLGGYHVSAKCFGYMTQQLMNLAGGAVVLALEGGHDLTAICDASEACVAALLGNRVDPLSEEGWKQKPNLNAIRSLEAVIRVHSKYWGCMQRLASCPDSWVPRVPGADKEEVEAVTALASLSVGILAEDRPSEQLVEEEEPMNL
Nature of the assay: HDAC biochemical activity measurement (fluorescent substrate deacetylation).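 Note: fluorogenic deacetylation assay using acetyl-lysine substrate at 20 µM, enzyme and compound incubated 30 min at 37 °C, then developer added, fluorescence read at 360/460 nm.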 As to conditions: HDAC7; 37° C. 30 minutes.

Assay [1] concerns A549 (human lung cancer cells). In words: MTT cancer cell growth inhibition. The following applies: Homo sapiens, A549, 72 h, MTT, 72 hours incubation, read-out: GI50 A54. Format: cell-based. In short, it runs like this: (§1)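 MTT viability, 570 nm, GI50. Cells 1500/well; compound 72 h at final 10^−5–10^−10 M in triplicate.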
Assay [2] has as its system BGC-823 (human gastric cancer cells). In words: MTT cancer cell growth inhibition. Format: cell-based. The following applies: Homo sapiens, BGC-823, 72 h, MTT, 72 hours incubation, read-out: GI50 BG. In short, it runs like this:
as §1

For assay [3], the system named is Bel-7402 (human hepatoma cells). Nature of the assay: MTT cancer cell growth inhibition. Format: cell-based. The following applies: Homo sapiens, Bel-7402, 72 h, MTT, 72 hours incubation, Bel-7402 cells; read-out: GI50 Bel-7402. In a few lines:
as §1

In assay [4] the test system is DU145 (human prostate cancer cells). Nature of the assay: MTT cancer cell growth inhibition. Format: cell-based. The following applies: Homo sapiens, DU-145, 72 h, MTT, 72 hours incubation, read-out: GI50 Du1. In a few lines:
as §1

Assay [5] concerns H1975 (non-small cell lung adenocarcinoma). In words: MTT cancer cell growth inhibition. The following applies: Homo sapiens, NCI-H1975, 72 h, MTT, 72 hours incubation, H1975 cells; read-out: GI50 H1975. Format: cell-based. In a few lines: as §1
Assay [6] has as its system HCC827 (human non-small cell lung cancer cells). Nature of the assay: MTT cancer cell growth inhibition. Format: cell-based. As to conditions: Homo sapiens, HCC827, 72 h, MTT, 72 hours incubation, HCC827 cells; read-out: GI50 HCC827. In short, it runs like this: as §1
For assay [7], the system named is HT1080 (human fibrosarcoma cells). In words: MTT cancer cell growth inhibition. The following applies: Homo sapiens, HT-1080, 72 h, MTT, 72 hours incubation, read-out: GI50 HT1. Type of assay: cell-based. In short, it runs like this:
as §1

The test system of assay [8] is Hela (human cervical cancer cells). Nature of the assay: MTT cancer cell growth inhibition. The following applies: Homo sapiens, HeLa, 72 h, MTT, 72 hours incubation, read-out: GI50 Hela. Format: cell-based. In a few lines:
as §1

The test system of assay [9] is Huh-7 (human hepatoma cells). Nature of the assay: MTT cancer cell growth inhibition. Type of assay: cell-based. The following applies: Homo sapiens, Huh-7, 72 h, MTT, 72 hours incubation, Huh-7 cells; read-out: GI50 Huh-7. In a few lines: as §1
The subject of assay [10] is K562 (human leukemia cells). In words: MTT cancer cell growth inhibition. Format: cell-based. The following applies: Homo sapiens, K562, 72 h, MTT, 72 hours incubation, K562 cells; read-out: GI50 K562. In short, it runs like this: as §1
Assay [11] deals with KBM-5 (human chronic myelogenous leukemia). In words: MTT cancer cell growth inhibition. Type of assay: cell-based. The following applies: Homo sapiens, KBM5, 72 h, MTT, 72 hours incubation, KBM-5 cells; read-out: GI50 KBM-5. In short, it runs like this: as §1
The test system of assay [12] is KBM5-T315I (human chronic myelogenous leukemia). In words: MTT cancer cell growth inhibition. Format: cell-based. The following applies: Homo sapiens, 72 h, MTT, 72 hours incubation, KBM5-T315I cells; read-out: GI50 KBM5-T315I. In short, it runs like this: as §1
The subject of assay [13] is MCF-7 (human breast cancer cells). In words: MTT cancer cell growth inhibition. Format: cell-based. As to conditions: Homo sapiens, MCF7, 72 h, 72 hours incubation, read-out: GI50 MCF. In a few lines: as §1
The test system of assay [14] is MDA-MB-231 (breast cancer cells). Nature of the assay: MTT cancer cell growth inhibition. Type of assay: cell-based. The following applies: Homo sapiens, MDA-MB-231, 72 h, read-out: GI50 MDA-MB-231, MTT, 72 hours incubation, MDA-MB-231 cells. In short, it runs like this: as §1
Assay [15] relates to MOLT-4 (human acute lymphoblastic leukemia cells). In words: MTT cancer cell growth inhibition. Format: cell-based. As to conditions: Homo sapiens, MOLT-4, 72 h, MTT, 72 hours incubation, read-out: GI50 Mol. In short, it runs like this: as §1
In assay [16] the test system is N-87 (human gastric cancer cells). Nature of the assay: MTT cancer cell growth inhibition. Type of assay: cell-based. As to conditions: Homo sapiens, 72 h, MTT, 72 hours incubation, N-87 cells; read-out: GI50 N-87. In a few lines: as §1
Assay [17] concerns PANC-1 (Pac-1, human pancreatic cancer cells). Nature of the assay: MTT cancer cell growth inhibition. The following applies: Homo sapiens, PANC-1, 72 h, MTT, 72 hours incubation, read-out: GI50 PAN. Type of assay: cell-based. In a few lines:
as §1

Assay [18] has as its system SGC-7901 (human gastric cancer cells). In words: MTT cancer cell growth inhibition. Type of assay: cell-based. As to conditions: Homo sapiens, SGC-7901, 72 h, MTT, 72 hours incubation, SGC-7901 cells; read-out: GI50 SGC-7901. In a few lines:
as §1

The subject of assay [19] is U937 (human leukemia cells). Nature of the assay: MTT cancer cell growth inhibition. As to conditions: Homo sapiens, U-937, 72 h, MTT, 72 hours incubation, read-out: GI50 U93. Format: cell-based. In a few lines: as §1
For assay [20], the system named is lncap (prostate cancer cells). In words: MTT cancer cell growth inhibition. Format: cell-based. As to conditions: Homo sapiens, LNCaP, 72 h, MTT, 72 hours incubation, read-out: GI50 lnca. In short, it runs like this: as §1

The term GI50 denotes the concentration giving 50% growth inhibition. For `C/C=C1\NC(=O)c2cc(SC)cc(n2)CNC(=O)C[C@@H](/C=C/CCSC(=O)CCC)OC(=O)[C@H](C(C)C)NC1=O` [Compound 160], at HDAC7, the “IC50 HDAC7” value was “no activity”. Besides, the 50% growth inhibitory concentration (GI50) in [1] (A549 cells) came to 30 nM; in [2] (BGC-823 cells), 90 nM; in assay [3], 36 nM; in assay [4] (DU145 cells), 40 nM; in assay [5] it was 71 nM; in assay [6], 16 nM. Also, the GI50 in [7] (HT1080 cells) was 40 nM; in assay [8] (Hela cells) it was 50 nM; in [9], 42 nM; in assay [10], 42 nM; in assay [11] it was 28 nM; in assay [12], 26 nM. The GI50 in assay [13] (MCF-7 cells) was found to be 40 nM; in [14], 17 nM; in assay [15] (MOLT-4 cells), 50 nM; in [16], 49 nM; in [17] (PANC-1 cells), 40 nM; in assay [18], 81 nM. Further, the GI50 in [19] (U937 cells) and in [20] (lncap cells) was 50 nM each time.
For the compound `C/C=C1\NC(=O)c2ccc(F)c(n2)CNC(=O)C[C@@H](/C=C/CCSC(C)=O)OC(=O)[C@H](Cc2ccc(O)cc2)NC1=O` [Compound 83], at HDAC7, the “IC50 HDAC7” value is recorded as “no activity”. In addition, the GI50 in [1] is 50 nM; in assay [2], 10 nM; in assay [3], 93 nM; in assay [4], 40 nM; in assay [5] it was 53 nM; in assay [6] it was 93 nM. Besides, the GI50 in assay [7] turned out to be 90 nM; in assay [8], 30 nM; in assay [9], 37 nM; in assay [10], 43 nM; in [11], 38 nM; in assay [12], 29 nM. The GI50 in assay [13] is 20 nM; in assay [14], 37 nM; in assay [15], 30 nM; in assay [16], 16 nM; in assay [17], 90 nM; in [18], 53 nM. In addition, the figures for the 50% growth inhibitory concentration (GI50) in assay [19] and in assay [20] were 50 nM and 30 nM, respectively.
For `C/C=C1\NC(=O)c2nc(ccc2F)CNC(=O)C[C@@H](/C=C/CCS)OC(=O)[C@H](C)NC1=O` [Compound 112], on HDAC7, the “IC50 HDAC7” value is “no activity”. Also, the concentration for 50% growth inhibition (GI50) in assay [1] was determined as 60 nM; in assay [2] it was 80 nM; in [3], 23 nM; in assay [4], 60 nM; in assay [5], 16 nM; in assay [6], 73 nM. In addition, the 50% growth inhibitory concentration (GI50) in [7] was 90 nM; in assay [8], 70 nM; in assay [9], 35 nM; in [10] it was 55 nM; in assay [11], 21 nM; in [12], 31 nM. In addition, the GI50 was 60 nM in assay [13]; 58 nM in [14]; 90 nM in assay [15]; 73 nM in assay [16]; 80 nM in assay [17]; 41 nM in assay [18]. The GI50 in assay [19] was found to be 60 nM; in assay [20], 70 nM.
